Consider two molecules from ChEMBL document CHEMBL5653631, “A Potent and Selective ULK1 Inhibitor Suppresses Autophagy and Sensitizes Cancer Cells to Nutrient Stress” (iScience, 2018).

The structures appear in SMILES notation.

For experiment [1], the target named is Serine/threonine-protein kinase N2 (Homo sapiens) (UniProt Q16513). Kind of experiment: Inhibition of human recombinant PKN2 at 500 nM in presence of ATP by radiometric assay relative to control.
The target in experiment [2] is Serine/threonine-protein kinase 4 (Homo sapiens) (UniProt Q13043). Kind of experiment: Inhibition of human recombinant MST1 at 500 nM in presence of ATP by radiometric assay relative to control.
Sequence of Serine/threonine-protein kinase 4 (Homo sapiens) (Q13043 whole entry, looked up): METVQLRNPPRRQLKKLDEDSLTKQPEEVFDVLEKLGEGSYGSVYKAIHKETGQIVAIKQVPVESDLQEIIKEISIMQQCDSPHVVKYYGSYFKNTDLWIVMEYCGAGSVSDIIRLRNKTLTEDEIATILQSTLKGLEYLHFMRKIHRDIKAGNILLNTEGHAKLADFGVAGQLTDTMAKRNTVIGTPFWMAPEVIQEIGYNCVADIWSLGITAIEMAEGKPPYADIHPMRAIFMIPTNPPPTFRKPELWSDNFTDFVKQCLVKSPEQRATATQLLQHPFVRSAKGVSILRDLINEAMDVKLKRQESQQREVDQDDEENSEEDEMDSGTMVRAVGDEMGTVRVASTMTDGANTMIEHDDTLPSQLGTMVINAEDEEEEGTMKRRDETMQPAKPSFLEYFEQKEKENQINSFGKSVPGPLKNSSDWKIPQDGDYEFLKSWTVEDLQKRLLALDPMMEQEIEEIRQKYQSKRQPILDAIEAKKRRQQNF
Experiment [3] has as its target T1, Protein kinase C epsilon type (Homo sapiens) (UniProt Q02156).
T1 sequence (whole entry): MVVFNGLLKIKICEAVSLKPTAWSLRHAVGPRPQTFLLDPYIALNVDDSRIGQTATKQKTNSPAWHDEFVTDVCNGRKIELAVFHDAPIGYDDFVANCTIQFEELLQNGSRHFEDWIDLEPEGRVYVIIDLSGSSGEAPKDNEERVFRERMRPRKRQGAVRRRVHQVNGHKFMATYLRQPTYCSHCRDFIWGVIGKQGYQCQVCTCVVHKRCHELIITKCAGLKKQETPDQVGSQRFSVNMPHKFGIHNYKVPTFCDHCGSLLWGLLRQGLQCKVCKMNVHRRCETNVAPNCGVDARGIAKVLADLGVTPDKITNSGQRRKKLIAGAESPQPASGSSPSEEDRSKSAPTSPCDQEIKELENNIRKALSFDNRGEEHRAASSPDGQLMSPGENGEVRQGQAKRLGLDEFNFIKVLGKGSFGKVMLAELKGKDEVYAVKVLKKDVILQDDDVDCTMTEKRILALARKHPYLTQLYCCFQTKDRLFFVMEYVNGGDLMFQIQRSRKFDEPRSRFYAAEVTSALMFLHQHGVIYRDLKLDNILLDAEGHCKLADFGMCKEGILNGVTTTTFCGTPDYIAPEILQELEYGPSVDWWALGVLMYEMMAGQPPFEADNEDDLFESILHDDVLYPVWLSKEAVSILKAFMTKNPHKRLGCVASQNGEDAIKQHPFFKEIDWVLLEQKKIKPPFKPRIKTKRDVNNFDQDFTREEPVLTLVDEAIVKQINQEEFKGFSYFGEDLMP
Kind of experiment: Inhibition of human recombinant PKCe at 500 nM related to control ULK1.

For experiment [4], the target named is T2, Mitogen-activated protein kinase kinase kinase 5 (Homo sapiens) (UniProt Q99683).
T2 sequence (whole entry): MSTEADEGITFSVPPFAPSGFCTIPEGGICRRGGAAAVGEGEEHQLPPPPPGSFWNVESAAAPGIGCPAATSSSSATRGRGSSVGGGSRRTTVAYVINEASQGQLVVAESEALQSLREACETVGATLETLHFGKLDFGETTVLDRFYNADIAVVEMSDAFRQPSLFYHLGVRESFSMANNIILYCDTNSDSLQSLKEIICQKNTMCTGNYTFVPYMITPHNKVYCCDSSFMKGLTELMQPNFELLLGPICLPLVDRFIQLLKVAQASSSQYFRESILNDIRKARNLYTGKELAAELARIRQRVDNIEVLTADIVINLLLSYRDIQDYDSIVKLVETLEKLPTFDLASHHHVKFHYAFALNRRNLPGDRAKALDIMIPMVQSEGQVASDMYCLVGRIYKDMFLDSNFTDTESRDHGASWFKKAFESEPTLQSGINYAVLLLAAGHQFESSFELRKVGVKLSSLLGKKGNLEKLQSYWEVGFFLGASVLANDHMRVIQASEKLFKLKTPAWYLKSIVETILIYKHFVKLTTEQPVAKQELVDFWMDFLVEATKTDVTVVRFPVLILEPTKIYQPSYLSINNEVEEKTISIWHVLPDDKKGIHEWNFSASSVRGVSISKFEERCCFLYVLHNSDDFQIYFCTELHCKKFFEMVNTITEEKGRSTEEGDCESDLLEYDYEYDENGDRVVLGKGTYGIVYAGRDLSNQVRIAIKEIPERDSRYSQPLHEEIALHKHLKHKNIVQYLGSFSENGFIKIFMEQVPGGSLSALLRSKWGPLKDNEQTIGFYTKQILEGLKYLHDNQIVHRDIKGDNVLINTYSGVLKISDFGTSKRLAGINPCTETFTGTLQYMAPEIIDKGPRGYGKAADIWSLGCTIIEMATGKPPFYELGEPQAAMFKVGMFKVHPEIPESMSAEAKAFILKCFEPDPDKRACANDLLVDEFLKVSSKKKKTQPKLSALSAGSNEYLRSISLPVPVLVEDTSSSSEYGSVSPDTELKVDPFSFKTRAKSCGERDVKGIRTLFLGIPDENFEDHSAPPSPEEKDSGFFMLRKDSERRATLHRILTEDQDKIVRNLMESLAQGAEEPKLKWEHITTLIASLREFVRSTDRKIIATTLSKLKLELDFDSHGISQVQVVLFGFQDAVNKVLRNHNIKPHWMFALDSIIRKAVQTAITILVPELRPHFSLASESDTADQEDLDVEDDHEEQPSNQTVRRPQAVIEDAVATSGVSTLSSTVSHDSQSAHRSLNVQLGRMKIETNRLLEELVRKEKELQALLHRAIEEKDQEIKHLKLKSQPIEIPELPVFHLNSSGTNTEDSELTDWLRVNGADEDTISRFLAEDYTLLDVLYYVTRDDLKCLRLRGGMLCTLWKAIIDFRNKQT
Kind of experiment: Inhibition of human recombinant MAP3K5 at 15 nM related to control ULK1.

For experiment [5], the target named is T3, Serine/threonine-protein kinase TBK1 (Homo sapiens) (UniProt Q9UHD2).
T3 sequence (whole entry): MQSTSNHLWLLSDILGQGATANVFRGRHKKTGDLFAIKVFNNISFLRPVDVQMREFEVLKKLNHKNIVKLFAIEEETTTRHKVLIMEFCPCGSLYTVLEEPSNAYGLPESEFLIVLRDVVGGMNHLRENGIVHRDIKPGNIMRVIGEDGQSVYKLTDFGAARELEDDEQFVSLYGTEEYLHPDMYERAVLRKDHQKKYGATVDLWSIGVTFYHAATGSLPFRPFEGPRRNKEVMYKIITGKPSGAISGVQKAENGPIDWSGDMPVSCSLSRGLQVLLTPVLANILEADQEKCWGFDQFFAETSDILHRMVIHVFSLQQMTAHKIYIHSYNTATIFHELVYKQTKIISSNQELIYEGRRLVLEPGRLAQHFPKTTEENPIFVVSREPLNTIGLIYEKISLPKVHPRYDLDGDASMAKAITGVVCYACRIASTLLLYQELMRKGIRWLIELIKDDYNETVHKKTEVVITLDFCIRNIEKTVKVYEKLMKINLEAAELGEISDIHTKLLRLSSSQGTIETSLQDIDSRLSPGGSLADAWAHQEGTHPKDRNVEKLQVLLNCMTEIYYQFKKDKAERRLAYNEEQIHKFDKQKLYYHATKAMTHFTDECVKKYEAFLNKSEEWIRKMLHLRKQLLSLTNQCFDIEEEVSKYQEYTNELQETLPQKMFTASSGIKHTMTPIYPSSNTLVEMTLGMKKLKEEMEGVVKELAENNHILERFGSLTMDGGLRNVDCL
Kind of experiment: Inhibition of human recombinant TBK1 at 15 nM in presence of ATP by radiometric assay relative to control.

Sequence of Serine/threonine-protein kinase N2 (Homo sapiens) (Q16513 whole entry, looked up): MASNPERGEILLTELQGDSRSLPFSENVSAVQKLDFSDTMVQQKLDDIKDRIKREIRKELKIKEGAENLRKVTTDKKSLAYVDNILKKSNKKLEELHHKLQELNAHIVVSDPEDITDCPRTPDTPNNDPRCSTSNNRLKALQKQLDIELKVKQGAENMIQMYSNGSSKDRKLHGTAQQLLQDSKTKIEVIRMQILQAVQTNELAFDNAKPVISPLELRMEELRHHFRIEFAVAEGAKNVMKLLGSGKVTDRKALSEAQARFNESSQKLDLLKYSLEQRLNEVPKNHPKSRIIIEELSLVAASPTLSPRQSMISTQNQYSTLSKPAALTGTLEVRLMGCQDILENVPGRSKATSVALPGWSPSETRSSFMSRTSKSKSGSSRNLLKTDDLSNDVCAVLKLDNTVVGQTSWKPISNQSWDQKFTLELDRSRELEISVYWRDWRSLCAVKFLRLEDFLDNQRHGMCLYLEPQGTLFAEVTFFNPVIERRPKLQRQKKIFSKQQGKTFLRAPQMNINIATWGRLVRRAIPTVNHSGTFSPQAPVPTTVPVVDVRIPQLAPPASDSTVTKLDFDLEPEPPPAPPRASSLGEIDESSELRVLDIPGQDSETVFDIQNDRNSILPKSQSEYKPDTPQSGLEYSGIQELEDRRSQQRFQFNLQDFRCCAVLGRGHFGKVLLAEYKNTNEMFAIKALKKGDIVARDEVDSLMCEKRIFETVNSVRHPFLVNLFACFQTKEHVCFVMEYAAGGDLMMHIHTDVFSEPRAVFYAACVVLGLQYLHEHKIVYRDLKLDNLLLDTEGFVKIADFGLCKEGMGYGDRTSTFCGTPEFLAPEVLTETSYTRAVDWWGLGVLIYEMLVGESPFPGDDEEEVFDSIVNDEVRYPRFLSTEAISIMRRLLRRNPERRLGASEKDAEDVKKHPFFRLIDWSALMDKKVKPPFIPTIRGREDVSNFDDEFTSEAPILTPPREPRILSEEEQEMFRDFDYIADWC

As usually defined, the inhibition is the drop in the measured response relative to a control, in per cent. Regarding `CNC(=O)c1ccccc1Oc1nc(Nc2cc(OC)c(OC)c(OC)c2)ncc1Br`, the inhibition in experiment [1] and in experiment [2] was 0% each time. Also, the fold change (FC) in experiment [3] came to 0.

`CC(C)[C@H](NC(=O)c1cc(-c2cnn3cc(-c4ccc(OCCN5CCCCC5)cc4)cnc23)cs1)C(F)(F)F`: in experiment [4], the fold change (FC) is 0. In addition, the inhibition in experiment [5] stood at 79%.
